Measured values reported in patent publication US20240025892A1 (priority 2020, published 2024).
pIC50: −log10 of the molar value. Entries after “also recorded” stand apart in the source; their conditions may differ. Read-outs that look alike come from different tables or passages of the source.

How the values were obtained:
[1] = molecular target: Recombinant SIK2 (Homo sapiens (Human), UniProt Q9H0K1); assay: biochemical; conditions: recombinant SIK2 2.5 nM, 1 μM ATP; read-out: SIK2 IC50
Experimental: (§1) Assays were performed in base reaction buffer (20 mM Hepes (pH 7.5), 10 mM MgCl2, 1 mM EGTA, 0.02% Brij35, 0.02 mg/mL BSA, 0.1 mM Na3VO4, 2 mM DTT, 1% DMSO). Compounds were dissolved in 100% DMSO in a 10 mM stock. […] Assays were performed for 20 minutes at room temperature, after which time ^33P-ATP (10 μCi/μL) was added followed by incubation for another 120 minutes at room temperature. Thereafter, radioactivity incorporated into the pEY peptide substrate was detected by filter-binding method. Kinase activity data were expressed as the percent remaining kinase activity in test samples compared to DMSO reactions. IC50 values and curve fits were obtained using Prism (GraphPad Software).

[2] = molecular target: SIK3 (Homo sapiens (Human), UniProt Q9Y2K2); assay: In vitro SIK3 kinase assay; format: biochemical
Experimental: as §1

[3] = molecular target: SIK1 (Homo sapiens (Human), UniProt P57059); assay: In vitro SIK1 kinase assay; format: biochemical
Experimental: as §1

[4] = molecular target: NanoLuc-SIK2 fusion in HEK293 cells (Homo sapiens (Human), UniProt Q9H0K1); assay: cell-based
Experimental: Assays were performed at Reaction Biology Corporation (Malvern, PA) in HEK293 cells from ATCC in 384 well plate format using Promega's NanoBRET TE intracellular kinase assay platform. HEK293 cells transiently expressing NanoLuc-SIK2 fusion vector were seeded into 384 well plates. Cells were pre-treated with the NanoBRET Tracer K-4 and then treated with compounds for 60 minutes in 10 point dose response format. […] IC50 values were calculated and IC50 curves were plotted using the GraphPad Prism 4 program on a sigmoidal dose response equation.

[5] = system: CRTC2 (TORC2); assay: CRTC2 nuclear translocation (PathHunter U2OS); format: cell-based; conditions: maximal CRTC2 nuclear translocation, U2OS cells, 90 minutes, maximum dose 10 μM
Excerpt: PathHunter® Nuclear Translocation cell lines are engineered to co-express two fusion proteins: a) Enzyme Donor (ED) tagged target protein; b) an Enzyme Acceptor (EA) tagged TAZ domain, derived from the CBP/P300 transcription factor, that localizes to the nucleus. Activation of the signaling pathway induces translocation of the ED-tagged target protein into the nucleus, which will force complementation of the two enzyme fragments, and result in the formation of a functional enzyme that will hydrolyze substrate and generate a chemiluminescent signal. U2OS CRTC2 (TORC2) translocation assays were performed in 384 well plates at Eurofins DiscoverX (Freemont, CA). Cells were treated with compounds for 90 minutes in experimental duplicates in 5 point dose response format (4-fold serial dilutions with a maximum dose of 10 μM) followed by […] readout on an Envision 2104 Multilabel Reader. In all experiments, forskolin was used as a positive control and maximal CRTC2 nuclear translocation induced by each compound is expressed as a percentage of the signal stimulated by forskolin.
Representative data are shown in FIG. 4A and presented as percent of the positive control (forskolin) signal.

[6] = system: RANKL; assay: RANKL gene expression in Ocy454 cells (RT-qPCR); conditions: maximal RANKL fold induction versus DMSO, four hours;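 also: Ocy454 cells moved to 37 °C for osteocytic differentiation before compound exposure, RANKL mRNA by SYBR Green qRT-PCR, 2^−ΔΔCT with β-actin normalization, duplicate wells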
[7] = system: 12 week old female C57B6 mice, sham or OVX; assay: Ovariectomy (OVX) mouse model of post-menopausal osteoporosis; format: in vivo
Excerpt: Recent reports have described the signaling pathway used by PTH in target cells in bone (see e.g., Wein et al, Nature Communications, 2016, 7:13176; Wein et al, Trends Endocrinol Metab. 2018; and Nishimori et al, J. Clin. Invest. 2019). One step in this cascade is that PTH signaling leads to PKA-dependent inhibition of salt inducible kinases (SIKs). Small molecule SIK inhibitors, such as YKL-05-099 (see e.g., Sundberg et al, ACS chemical biology, 2016; and Tarumoto et al, Blood, 2019), a tool compound that inhibits all 3 SIK isoforms, mimic the actions of PTH (see e.g., Wein et al, Nature Communications, 2016, 7:13176). The efficacy of YKL-05-099 has been tested in mice rendered hypo-gonadal by surgical removal of the ovaries, a model of post-menopausal osteoporosis. […] Therefore, mice were generated where SIK2/3 can be deleted ubiquitously in a tamoxifen-dependent manner to assess the safety and skeletal efficacy of selective SIK2/3 deletion in adult animals.

[8] = HEK293 cells, compounds for 60 minutes, read-out: SIK2 NanoBRET
[9] = mice, YKL-05-099 18 mg/kg once daily for 4 weeks

NanoLuc-SIK2 fusion in HEK293 cells, sequence (Q9H0K1 whole entry, the tested form may be a part): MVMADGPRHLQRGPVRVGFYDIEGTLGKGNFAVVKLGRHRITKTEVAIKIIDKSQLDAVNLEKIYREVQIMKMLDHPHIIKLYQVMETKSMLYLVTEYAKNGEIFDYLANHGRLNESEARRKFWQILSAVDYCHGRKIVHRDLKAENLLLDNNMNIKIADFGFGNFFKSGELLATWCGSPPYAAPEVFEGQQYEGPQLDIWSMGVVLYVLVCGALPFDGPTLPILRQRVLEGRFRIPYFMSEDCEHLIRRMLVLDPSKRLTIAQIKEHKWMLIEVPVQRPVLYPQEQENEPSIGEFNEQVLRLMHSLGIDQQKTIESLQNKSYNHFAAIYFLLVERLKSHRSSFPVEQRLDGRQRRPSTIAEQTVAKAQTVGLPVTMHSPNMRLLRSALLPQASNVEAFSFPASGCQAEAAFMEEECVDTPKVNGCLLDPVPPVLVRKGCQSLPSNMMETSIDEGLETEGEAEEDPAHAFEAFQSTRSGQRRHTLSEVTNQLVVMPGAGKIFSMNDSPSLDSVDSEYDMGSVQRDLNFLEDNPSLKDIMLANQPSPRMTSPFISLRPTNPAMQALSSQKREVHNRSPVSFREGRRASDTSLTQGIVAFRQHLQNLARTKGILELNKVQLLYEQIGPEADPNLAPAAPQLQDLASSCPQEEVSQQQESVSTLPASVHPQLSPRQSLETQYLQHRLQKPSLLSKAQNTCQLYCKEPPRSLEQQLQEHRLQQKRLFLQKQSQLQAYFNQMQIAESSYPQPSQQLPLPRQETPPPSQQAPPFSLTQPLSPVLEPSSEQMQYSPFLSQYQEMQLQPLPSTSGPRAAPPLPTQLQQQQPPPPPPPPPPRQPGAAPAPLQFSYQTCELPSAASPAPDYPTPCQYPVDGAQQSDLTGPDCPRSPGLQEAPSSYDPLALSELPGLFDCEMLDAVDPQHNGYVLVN
Recombinant SIK2, sequence (Q9H0K1 whole entry): as the sequence (Q9H0K1 whole entry, the tested form may be a part) above
SIK3, sequence (Q9Y2K2 whole entry): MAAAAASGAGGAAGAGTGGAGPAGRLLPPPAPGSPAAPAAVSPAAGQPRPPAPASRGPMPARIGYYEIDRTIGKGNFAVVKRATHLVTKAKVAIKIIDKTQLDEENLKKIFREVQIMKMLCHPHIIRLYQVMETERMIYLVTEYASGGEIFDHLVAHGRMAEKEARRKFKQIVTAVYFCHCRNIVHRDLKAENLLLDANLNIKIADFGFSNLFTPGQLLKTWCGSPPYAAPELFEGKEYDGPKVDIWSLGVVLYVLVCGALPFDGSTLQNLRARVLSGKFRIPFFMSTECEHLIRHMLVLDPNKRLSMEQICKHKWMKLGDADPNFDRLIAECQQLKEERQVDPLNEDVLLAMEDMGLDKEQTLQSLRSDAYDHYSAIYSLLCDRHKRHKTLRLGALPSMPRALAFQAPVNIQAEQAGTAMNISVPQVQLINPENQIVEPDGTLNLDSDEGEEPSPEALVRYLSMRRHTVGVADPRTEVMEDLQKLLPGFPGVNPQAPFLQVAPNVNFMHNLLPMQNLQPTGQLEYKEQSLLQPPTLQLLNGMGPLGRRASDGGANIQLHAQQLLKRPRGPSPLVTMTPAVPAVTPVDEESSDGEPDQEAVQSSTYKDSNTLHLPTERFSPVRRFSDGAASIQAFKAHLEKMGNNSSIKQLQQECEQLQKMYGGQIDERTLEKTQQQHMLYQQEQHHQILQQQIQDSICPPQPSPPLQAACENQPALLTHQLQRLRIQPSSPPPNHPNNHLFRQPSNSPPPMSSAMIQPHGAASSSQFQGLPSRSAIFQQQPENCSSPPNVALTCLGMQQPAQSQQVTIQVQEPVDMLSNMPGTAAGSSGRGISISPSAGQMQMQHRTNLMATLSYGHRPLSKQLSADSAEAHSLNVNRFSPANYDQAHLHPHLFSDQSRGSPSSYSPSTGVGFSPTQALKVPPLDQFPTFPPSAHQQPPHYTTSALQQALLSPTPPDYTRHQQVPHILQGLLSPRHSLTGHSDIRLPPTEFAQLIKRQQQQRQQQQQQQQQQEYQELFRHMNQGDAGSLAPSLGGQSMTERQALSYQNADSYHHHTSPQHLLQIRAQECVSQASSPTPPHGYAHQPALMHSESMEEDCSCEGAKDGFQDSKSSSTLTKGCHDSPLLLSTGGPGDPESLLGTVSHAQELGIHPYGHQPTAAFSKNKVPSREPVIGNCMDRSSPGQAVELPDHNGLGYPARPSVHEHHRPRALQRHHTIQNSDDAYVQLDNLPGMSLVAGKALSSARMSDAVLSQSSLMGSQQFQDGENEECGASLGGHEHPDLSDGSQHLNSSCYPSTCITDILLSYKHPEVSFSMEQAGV
SIK1, sequence (P57059 whole entry): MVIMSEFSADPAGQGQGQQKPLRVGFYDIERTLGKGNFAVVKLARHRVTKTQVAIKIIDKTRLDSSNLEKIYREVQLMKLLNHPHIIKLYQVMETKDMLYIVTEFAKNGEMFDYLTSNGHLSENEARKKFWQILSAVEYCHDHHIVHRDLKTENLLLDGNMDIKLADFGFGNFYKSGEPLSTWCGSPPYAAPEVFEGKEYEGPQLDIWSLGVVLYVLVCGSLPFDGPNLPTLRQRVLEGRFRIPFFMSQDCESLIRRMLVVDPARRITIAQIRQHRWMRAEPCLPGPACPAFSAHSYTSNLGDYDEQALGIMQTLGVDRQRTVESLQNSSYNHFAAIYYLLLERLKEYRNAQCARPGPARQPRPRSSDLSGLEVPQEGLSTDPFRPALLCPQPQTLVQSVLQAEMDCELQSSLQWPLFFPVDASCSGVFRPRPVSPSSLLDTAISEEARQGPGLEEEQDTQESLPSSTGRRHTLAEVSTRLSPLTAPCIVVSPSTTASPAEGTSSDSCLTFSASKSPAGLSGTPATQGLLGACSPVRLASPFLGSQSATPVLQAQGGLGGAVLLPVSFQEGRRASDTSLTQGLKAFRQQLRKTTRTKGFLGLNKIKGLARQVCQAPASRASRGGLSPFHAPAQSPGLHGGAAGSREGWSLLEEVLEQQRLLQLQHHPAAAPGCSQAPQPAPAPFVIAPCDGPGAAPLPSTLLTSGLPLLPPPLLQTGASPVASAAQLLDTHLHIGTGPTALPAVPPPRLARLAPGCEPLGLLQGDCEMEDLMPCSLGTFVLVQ

SMILES | pIC50 [1] | pIC50 [2] | pIC50 [3] | pIC50 [4] | CRTC2 Efficacy (% of forskolin) [5] | RANKL Fold Induction [6] [fold] | pIC50 [4, 8] | bone density / bone mass and bone formation ([7]; OVX mice, once daily for 4 weeks, PTH 100 mcg/d, YKL-05-099 18 mg/kg) | BUN levels / renal function [7, 9] | fasting glucose [7, 9]
COCCN1CCC12CCN(c1cccc3ccc(-n4cnc5cc(OCC6(C)COC6)ccc54)nc13)CC2 [Example 12, 8-[1-(2-Methoxyethyl)-1,7-diazaspiro[3.5]nonan-7-yl]-2-[5-[(3-methyloxetan-3-yl)methoxy]benzimidazol-1-yl]quinoline] | 8.31 | 7.92 | 6.85 | 6.03 | 37.6 % of forskolin | 62.52 | – | – | – | –
N#Cc1ccc(-c2cnn3cc(C(=O)NCc4cccnc4)ccc23)cc1 [Example 37, 3-(4-Cyanophenyl)-N-(3-pyridylmethyl)pyrazolo[1,5-a]pyridine-6-carboxamide] | 7.49 | 6.51 | 6.11 | – | 40.6 % of forskolin | 1.17 | 6.94 | – | – | –
N#Cc1ccc(-c2cnc3cc(C(=O)NCc4cn5ccccc5n4)ccn23)cc1 [Example 24, 3-(4-cyanophenyl)-N-(imidazo[1,2-a]pyridin-2-ylmethyl)imidazo[1,2-a]pyridine-7-carboxamide] | 7.94 | 6.08 | 4.90 | – | 21.2 % of forskolin | 2.24 | 7.38 | – | – | –
N#Cc1ccc(-c2cnc3cc(C(=O)NCc4nc5ccccc5[nH]4)ccn23)cc1 [Example 22, N-((1H-benzo[d]imidazol-2-yl)methyl)-3-(4-cyanophenyl)imidazo[1,2-a]pyridine-7-carboxamide] | 8.25 | 6.30 | 4.89 | – | 12.9 % of forskolin | 1.19 | 6.93 | – | – | –
COc1ccc(N2C(=O)N(c3c(C)cccc3Cl)Cc3cnc(Nc4ccc(C5CCN(C)CC5)cc4OC)nc32)nc1 [YKL-05-099] | – | – | – | – | – | – | – | comparable/superior efficacy; also recorded: increase bone density and bone formation rate | impaired renal function; also recorded: increased | hyper-glycemia; also recorded: increased
CCc1nnc(-c2ccc(-c3cnc4cc(-c5cnn(C)c5)ccn34)cc2OC)o1 [Example 57, 2-ethyl-5-(2-methoxy-4-(7-(1-methyl-1H-pyrazol-4-yl)imidazo[1,2-a]pyridin-3-yl)phenyl)-1,3,4-oxadiazole] | 8.06 | 7.96 | 7.04 | – | – | 13.68 | 7.04 | – | – | –
CC1(COc2ccc3c(c2)ncn3-c2ccc3cccc(N4CC5(CC(N)C5)C4)c3n2)COC1 [Example 2, 2-[2-[5-[(3-Methyloxetan-3-yl)methoxy]benzimidazol-1-yl]-8-quinolyl]-2-azaspiro[3.3]heptan-6-amine] | 7.38 | 7.41 | 6.20 | – | 162 % of forskolin | 1.43 | – | – | – | –
COc1ccc(OC)c(-c2cnc3cc(C(=O)NCc4cccnc4)ccn23)c1 [Example 31, 3-(2,5-dimethoxyphenyl)-N-(3-pyridylmethyl)imidazo[1,2-a]pyridine-7-carboxamide] | – | 7.12 | 6.39 | 5.40 | 31.2 % of forskolin | 0.90 | – | – | – | –
CC1(COc2ccc3c(c2)ncn3-c2ccc3cccc(N4CCC5(CCN5)CC4)c3n2)COC1 [Example 3, 2-(5-((3-methyloxetan-3-yl)methoxy)-1H-benzo[d]imidazol-1-yl)-8-(1,7-diazaspiro[3.5]nonan-7-yl)quinoline] | 9.01 | 8.65 | 7.74 | – | 88.5 % of forskolin | 57.08 | 8.05 | – | – | –
N#Cc1ccc(-n2cnc3cc(C(=O)NCc4cn5ccccc5n4)ccc32)cc1 [Example 33, 1-(4-cyanophenyl)-N-(imidazo[1,2-a]pyridin-2-ylmethyl)-1H-benzo[d]imidazole-5-carboxamide] | 7.85 | 5.59 | 5.27 | – | 21.7 % of forskolin | 0.92 | 7.35 | – | – | –
NC1CCN(c2cccc3ncc(-n4cnc5cc(OCC6CS(=O)(=O)C6)ccc54)nc23)CC1 [Example 14, 3-(((1-(8-(4-Aminopiperidin-1-yl)quinoxalin-2-yl)-1H-benzo[d]imidazol-5-yl)oxy)methyl)thietane 1,1-dioxide] | 7.79 | 8.22 | 6.96 | – | 94.2 % of forskolin | 1.26 | – | – | – | –
CC1(COc2ccc3c(c2)ncn3-c2ccc3cccc(N4CC(N)C4)c3n2)COC1 [Example 7, 1-(2-(5-((3-methyloxetan-3-yl)methoxy)-1H-benzo[d]imidazol-1-yl)quinolin-8-yl)azetidin-3-amine] | 8.08 | 7.94 | 6.86 | – | 89 % of forskolin | 30.37 | 7.36 | – | – | –
CCn1cc(-c2ccc3c(-c4ccc(C#N)cc4)cnn3c2)cn1 [Example 52, 4-[6-(1-Ethylpyrazol-4-yl)pyrazolo[1,5-a]pyridin-3-yl]benzonitrile] | 8.95 | 8.79 | 8.32 | – | 77 % of forskolin | 19.99 | – | – | – | –
N#Cc1ccc(-c2cnn3cc(C(=O)NCc4nc5cccnc5[nH]4)ccc23)cc1 [Example 35, 3-(4-Cyanophenyl)-N-(3H-imidazo[4,5-b]pyridin-2-ylmethyl)pyrazolo[1,5-a]pyridine-6-carboxamide] | 8.12 | 6.99 | 5.68 | 7.03 | 8.9 % of forskolin | 0.39 | – | – | – | –
N#Cc1ccc(-c2cnc3cc(-c4cnn(C5CC5)c4)ccn23)cc1 [Example 49, 4-(7-(1-cyclopropyl-1H-pyrazol-4-yl)imidazo[1,2-a]pyridin-3-yl)benzonitrile] | 10.00 | 8.84 | 8.67 | – | 92.2 % of forskolin | 6.31 | 8.87 | – | – | –
CC1(COc2ccc3c(c2)ncn3-c2ccc3cccc(N4CCCC4CN)c3n2)COC1 (stereo not drawn) [Example 8, (1-(2-(5-((3-methyloxetan-3-yl)methoxy)-1H-benzo[d]imidazol-1-yl)quinolin-8-yl)pyrrolidin-2-yl)methanamine] | 7.94 | 7.51 | 7.30 | – | 64.4 % of forskolin | 17.47 | – | – | – | –
